Experimental data taken from patent publication US20230343467A1, “SYSTEMS AND METHODS FOR IDENTIFICATION OF CELL LINES, BIOMARKERS, AND PATIENTS FOR DRUG RESPONSE PREDICTION” (THERAINDX LIFESCIENCES PVT LTD, priority 2020, published 2023).

Legend:
DU4475 = assay: In vitro potency (IC50) of Palbociclib on breast cancer cell line; assay type: cell-based; conditions: Homo sapiens, DU-4475, read-out: Observed IC50
Excerpt: (§1) Palbociclib, a targeted inhibitor of CDK4/6 indicated for breast cancer. Identification of Human Breast Cancer cell lines sensitive and resistant to Palbociclib using the method 300 for drug discovery and development, particularly for identification, selection and validation of Human Cancer Cell lines and Biomarkers based on Pharmacological Target(s). A comparison of Predicted Efficacy with Observed Efficacy in cell lines/patients is provided. The pharmacological target is Ser/Thr-kinase component of cyclin D-CDK4/6, which inhibits CDK4/6 phosphorylation of retinoblastoma (RB) protein family (RB1). The phenotypic end point of which is the inhibition of cell proliferation. Further, the Breast Cancer Cell Lines are selected based on the multi-omics and pathway regulator status. […] The predicted response (sensitivity or resistance to Palbociclib) was compared with cell line in vitro potency data (IC50) of Palbociclib. The predicted responses were in agreement with observed data (IC50) for Palbociclib's activity on various Human Breast Cancer cell lines. Table 6a and 6b show the comparison of predicted response values, for both sensitive and resistant to Palbociclib, with observed data.

EFM19 = assay: as above; assay type: cell-based; conditions: Homo sapiens, EFM-19, read-out: Observed IC50
Excerpt: as §1

HCC1500 = assay: as above; assay type: cell-based; conditions: Homo sapiens, read-out: Observed IC50
Excerpt: as §1

HCC1569 = assay: as above; assay type: cell-based; conditions: Homo sapiens, read-out: Observed IC50
Excerpt: as §1

HCC2157 = assay: as above; assay type: cell-based; conditions: Homo sapiens, read-out: Observed IC50
Excerpt: as §1

MCF7 = assay: as above; assay type: cell-based; conditions: Homo sapiens, read-out: Observed IC50
Excerpt: as §1

MDAMB157 = assay: as above; assay type: cell-based; conditions: Homo sapiens, MDA-MB-157, read-out: Observed IC50
Excerpt: as §1

MDAMB231 = assay: as above; assay type: cell-based; conditions: Homo sapiens, MDA-MB-231, read-out: Observed IC50
Excerpt: as §1

MDAMB361 = assay: as above; assay type: cell-based; conditions: Homo sapiens, MDA-MB-361, read-out: Observed IC50
Excerpt: as §1

MDAMB468 = assay: as above; assay type: cell-based; conditions: Homo sapiens, MDA-MB-468, read-out: Observed IC50
Excerpt: as §1

[1] = system: cell line population with amplified ABCB1; assay: Response curves (IC50 values) of cell line populations, transporter amplified vs wildtype, vincristine; conditions: IC50 values for 530 cell lines from Cancerrx
Excerpt: (§2) The drug transporter identification module 205 allows identification of co-relating genomic factors such as factors affecting drug transporters, transporter genes, or any alterations therein such as transporter gene amplification including copy number alterations ([…]), increased m-RNA expressions, etc. particularly associated with multidrug resistance (MDR) development. The drug transporter identification module 205 allows identifying drug transporter factors that impact the efficacy of the drug of interest using in vitro sensitivity data, during pre-clinical phase of drug development. […] Drug transporters such as solute carrier (SLC) family and ATP-binding cassette (ABC) family are known to function as drug efflux pumps which contribute towards drug resistance and reduced bioavailability. The method, in various embodiments herein use in vitro sensitivity data in identification of MDR transporter genes during pre-clinical phase of drug development. In an embodiment, in vitro sensitivity data for chemo therapeutic drug, vincristine (particularly cell line-specific IC50 values for 530 cell lines), from cancerrx (database of genomics of drug sensitivity), and cell multi-omics characteristics, from Cancer Cell Line Encyclopedia (CCLE) were used as inputs for the stratification algorithm. […]

[2] = system: cell line population with amplified ABCB4; assay: as above; conditions: IC50 values for 530 cell lines from Cancerrx
Excerpt: as §2

IC50 (DU4475) [nM]	IC50 (EFM19) [nM]	IC50 (HCC1500) [nM]	IC50 (HCC1569) [nM]	IC50 (HCC2157) [nM]	IC50 (MCF7) [nM]	IC50 (MDAMB157) [nM]	IC50 (MDAMB231) [nM]	IC50 (MDAMB361) [nM]	IC50 (MDAMB468) [nM]	SMILES	Efficacy in cell line population with ABCB1 amplification compared to wildtype (median of response curves) [1]	Efficacy in cell line population with ABCB4 amplification compared to wildtype (median of response curves) [2]
> 1000	27	45	> 1000	> 1000	148	> 1000	432	44	> 1000	CC(=O)c1c(C)c2cnc(Nc3ccc(N4CCNCC4)cn3)nc2n(C2CCCC2)c1=O [Palbociclib]		
										CC[C@]1(O)C[C@H]2CN(CCc3c([nH]c4ccccc34)[C@@](C(=O)OC)(c3cc4c(cc3OC)N(C=O)[C@H]3[C@@](O)(C(=O)OC)[C@H](OC(C)=O)[C@]5(CC)C=CCN6CC[C@]43[C@@H]65)C2)C1 [vincristine]	lesser efficacy	lower efficacy
